Where two headings read alike, the source gives them in different places.
Columns and labels:
newborn rat thymocytes = conditions: Con A 50 pg/mL
Source text: It was used an octapeptide with similar weight for the elaboration of the complex, to which was just the proline (4) and Glycine (5) original amino acids were interchanged by proline (4) and Glycine (5) resulting as […].

IL-2 = conditions: umbilical cord blood; PHA; cited from earlier work
Jurkat cells = conditions: peptide 10^−10M, PHA 1 μg/mL
THP-1 cells = conditions: for Proliferation (% with respect to the control): LPS 0.5 μg/mL
Source text: We proceeded to perform some related to the proliferative stimulation of the peptide in presence of other divalent cations such as magnesium, copper, and manganese.

human lymphocytes = conditions: for Proliferation (% with respect to the control): PHA 1 μg/mL

For LEDGPKFL [reference compound], the “Proliferation (% with respect to the control)” value (newborn rat thymocytes; 10^−6 (918 ng/mL)) was 123.1 ± 6.1 %, the “Proliferation (% with respect to the control)” value (newborn rat thymocytes; 10^−7 (91.8 ng/mL)) was 125.6 ± 3.9 % and the “Proliferation (% with respect to the control)” value (newborn rat thymocytes; 10^−7.5 (9.58 ng/mL)) was 119.2 ± 6.1 %. For the same substance, the “Proliferation (% with respect to the control)” value (newborn rat thymocytes; 10^−8 (9.18 ng/mL)) was 117.3 ± 3.2 %, the “Proliferation (% with respect to the control)” value (newborn rat thymocytes; 10^−9 (0.91 ng/mL)) was 110.6 ± 7.9% and the “Proliferation (% with respect to the control)” value (newborn rat thymocytes; 10^−10 (0.09 ng/mL)) was 104.3 ± 4.8%. For the same substance, the “Proliferation (% with respect to the control)” value (newborn rat thymocytes; 10^−11 (0.009 ng/mL)) was 103.7 ± 5.1%, the “Proliferation (% with respect to the control)” value (newborn rat thymocytes; 10^−12 (0.0009 ng/mL)) was 104.4 ± 2.5% and the “Concentrations increasing IL-2 production” value (IL-2) was 300 to 600 ng/mL. The “Proliferation (% with respect to the control)” value (Jurkat cells; [ZINC] (M) −8) was 195 ± 10 %, the “Proliferation (% with respect to the control)” value (Jurkat cells; [ZINC] (M) −9) was 192 ± 12 % and the “Proliferation (% with respect to the control)” value (Jurkat cells; [ZINC] (M) −10) was 190 ± 10 %. The “Proliferation (% with respect to the control)” value (Jurkat cells; [ZINC] (M) −11) was 135 ± 10 % and the “Proliferation (% with respect to the control)” value (Jurkat cells; [ZINC] (M) −12) was 102 ± 5.2%.
With Zinc [reference compound] the “Proliferation (% with respect to the control)” value (THP-1 cells; Concentration (M) −6) was 105 ± 8.8%, the “Proliferation (% with respect to the control)” value (THP-1 cells; Concentration (M) −7) was 102 ± 9.7% and the “Proliferation (% with respect to the control)” value (THP-1 cells; Concentration (M) −7.5) was 104 ± 8.8%. For the same substance, the “Proliferation (% with respect to the control)” value (THP-1 cells; Concentration (M) −8) was 102 ± 12.1%, the “Proliferation (% with respect to the control)” value (THP-1 cells; Concentration (M) −9) was 103 ± 9.9% and the “Proliferation (% with respect to the control)” value (THP-1 cells; Concentration (M) −10) was 100 ± 7.0%. The “Proliferation (% with respect to the control)” value (THP-1 cells; Concentration (M) −11) was 101 ± 3.9%, the “Proliferation (% with respect to the control)” value (THP-1 cells; Concentration (M) −12) was 98 ± 4.5% and the “Effect on proliferation” value (THP-1 cells; zinc ion by itself) was “did not stimulate the proliferation”. The “Proliferation (% with respect to the control)” value (human lymphocytes; Concentration (M) −6) was 96 ± 2.8%, the “Proliferation (% with respect to the control)” value (human lymphocytes; Concentration (M) −7) was 99 ± 2.7% and the “Proliferation (% with respect to the control)” value (human lymphocytes; Concentration (M) −7.5) was 95 ± 3.8%. The “Proliferation (% with respect to the control)” value (human lymphocytes; Concentration (M) −8) was 101 ± 4.1%, the “Proliferation (% with respect to the control)” value (human lymphocytes; Concentration (M) −9) was 103 ± 3.9% and the “Proliferation (% with respect to the control)” value (human lymphocytes; Concentration (M) −10) was 100 ± 3.0%. For the same substance, the “Proliferation (% with respect to the control)” value (human lymphocytes; Concentration (M) −11) was 99 ± 3.9%, the “Proliferation (% with respect to the control)” value (human lymphocytes; Concentration (M) −12) was 96 ± 4.5% and the “Effect on proliferation” value (human lymphocytes; zinc ion by itself, PHA stimulated) was “did not modify the proliferation”.
